Columns and labels:
Assay in all cases: area under growth-rate inhibition curve (AUC GRI) (dimensionless (GR-based AUC)); higher = less growth inhibition
Conditions in all cases: exposure time: 72 h; concentrations: 0.1, 1, 10 uM
BT474-LTR = test system: BT474-LTR
In short: (§1)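 Nuclear counts from Hoechst 33342- or DAPI-stained images were used to estimate the area under the growth-rate inhibition curve, with growth corrected by reference to untreated and DMSO-treated plates and starting plates. The six breast cancer cell line models, comprising two triple-negative lines and parental and drug-combination-resistant HER2+ lines, were treated with compound at 0.1, 1 or 10 µM for 72 h. Data came from 2 biological replicates, using Day 0 and Day 3 plates.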

MDA-MB-468 = test system: MDA-MB-468
In short: as §1

BT474-P = test system: BT474-P
In short: as §1

MDA-MB-231 = test system: MDA-MB-231
In short: as §1

SKBR3-LTR = test system: SKBR3-LTR
In short: as §1

SKBR3-P = test system: SKBR3-P
In short: as §1

Structure (SMILES) | area under growth-rate inhibition curve (BT474-LTR) | area under growth-rate inhibition curve (MDA-MB-468) | area under growth-rate inhibition curve (BT474-P) | area under growth-rate inhibition curve (MDA-MB-231) | area under growth-rate inhibition curve (SKBR3-LTR) | area under growth-rate inhibition curve (SKBR3-P)
CNS(=O)(=O)CCc1ccc2[nH]cc(C3CCN(C)CC3)c2c1.[Cl-].[H+] [Naratriptan] | 1.04 | 1.04 | 1.04 | 1.02 | 1.06 | 0.994
CC(NCCc1ccc(O)cc1)C(O)c1ccc(O)cc1.[Cl-].[H+] (stereo not drawn) [Ritodrine HCl] | 1.1 | 1.01 | 1.07 | 0.975 | 1.11 | 1.02
CNCCC(Oc1ccc(C(F)(F)F)cc1)c1ccccc1.[Cl-].[H+] (stereo not drawn) [Fluoxetine HCl] | 1.03 | 1.03 | 1.02 | 1 | 1 | 1.02
COc1cc2c(cc1OC)CC(=O)N(CCCN(C)CC1Cc3cc(OC)c(OC)cc31)CC2.Cl (stereo not drawn) [Ivabradine HCl] | 1.04 | 1.01 | 1.02 | 1.01 | 1.07 | 1.03
CC(=O)[C@@]1(O)CC[C@H]2[C@@H]3CCC4=CC(=O)CC[C@]4(C)[C@H]3CC[C@@]21C [17-Hydroxyprogesterone] | 1.07 | 1 | 1.02 | 1.02 | 1.03 | 1
C[C@H]1CNCCc2ccc(Cl)cc21.[Cl-].[H+] [Lorcaserin HCl] | 1.09 | 1.03 | 1.06 | 1.02 | 1.03 | 1.03
CC(C)COc1ccc(CNC(=O)N(Cc2ccc(F)cc2)C2CCN(C)CC2)cc1 [Pimavanserin] | 0.936 | 0.887 | 0.873 | 0.867 | 0.876 | 0.856
Cc1ccccc1C(=O)Nc1ccc(C(=O)N2CCCC(O)c3cc(Cl)ccc32)c(C)c1 (stereo not drawn) [Tolvaptan] | 1.03 | 1.02 | 1 | 1.01 | 1.03 | 1.02
